Results reported in patent US4851338A, “Method for diagnosing the presence of bacteria” (Biocarb AB, priority 1982, dated 1989).

Experiments:
[1] = tested on: NK-cells activity (lymphocytes) against K-562 cells; assay: Inhibition of NK-cells activity (chromium release cytotoxicity of lymphocytes against K-562); assay type: cell-based, human; settings: for % specific cytotoxicity: ratio 20:1
Procedure: Lymphocytes isolated from peripheral blood drained from normal donors have the ability of exerting a cytotoxic, (i.e. cell killing activity against certain types of cells in culture. In the instant example there is used a human leukemia cell line called K-562 as a target cell for such cytolytic activity.
Method: K-562 cells intracellularly labelled with radioactive chromium are incubated with effector cells (lymphocytes) for 4 hours at 37° C. The cytotoxic effect is measured as the quantity of isotope released in relation to remaining isotope in the target cells. For details see Malmstrom, P., Jonsson, Å, and Sjogren, H.O. "Countercurrent distribution of lymphocytes from human peripheral blood in an aqueous two-phase system. II. Separation into subsets of lymphocytes with distinctive functions". Cell Immunol. 53:51-64, 1980. For studying inhibiting substances effector cells (6×10^6 cells/ml) are preincubated with the respective oligosaccharides diluted in cultivating medium for half an hour at 37° C. After washing with centrifugation the effector cells are transferred directly to the target cells.

[2] = tested on: haemagglutination between sheep erythrocytes and S. saprophyticus bacteria (Mc 2 and Mc 194); assay: Inhibition of haemagglutination of sheep erythrocytes with Staphylococcus saprophyticus; assay type: cell-based; settings: for minimal effective concentration: Staphylococcus saprophyticus, Erythrocyte, read-out: Minimum inhibitory con.; for Minimum inhibitory con.: Inhibition of haemagglutination, S. saprophyticus Mc 2 and Mc 194, 2 HU bacteria
Procedure: In the tests the bacteria S. saprophyticus strains, both isolated from urine from patents having urinary tract infection, were used. The bacteria were cultivated in tryptone broth over night, pelletized by means of centrifugation and washed twice with PBS, pH 7.2. Haemagglutination was performed using erythrocytes from sheep obtained from sheep blood and washed twice with 0.85 % saline.
In the haemagglutination-indication experiments microtitre plates (Limbo Sc. Comp. Inc) were used. 25 μl of bacterial suspension were titrated in PBS by two-step titre steps, 25 μl of 1% erythrocyte suspension being then added. The haemagglutination titre was determined after incubation of the plates for 2-4 hours in room temperature.
In the inhibition experiments serial dilutions of the relevant inhibitor (50 μl/well) and 25 μl of bacterial suspension diluted to contain 2 HU haemagglutinating units of bacteria were used. The plates were incubated for 30 minutes at 37° C., 25 μl of the erythrocyte suspension being then added to each well.

[3] = tested on: adhesion of S. saprophyticus to urinary epithelial cells; assay: Inhibition of adherence of S. saprophyticus to urinary epithelial cells; assay type: cell-based, Staphylococcus saprophyticus
Procedure: Cells from urinary epithelium were suspended in cell cultivation medium RPMI 1640 (Flow Ltd) to a concentration of 10^5 cells/ml.
Microorganisms of the type S. saprophyticus were suspended in RPMI 1640 to a concentration of 10^9 bacteria/ml. Oligosaccharides which were tested for their ability of preventing adhesion of S. saprophyticus to urinary epithelial cells were dissolved in RPMI 1640 to a concentration of 5 mg/ml. In the experiments 1 ml of the oligosaccharide solution was incubated with 0.1 ml bacterial suspension at 37° C. for 30 minutes. Urinary epithelial cells were incubated with the bacterial suspension incubated in advance as described above with oligosaccharide solution for 45 minutes at 37° C. As a control there was used a bacterial suspension preincubated with 1 ml RPMI 1640.
Incubated samples were filtrated through a 12μ filter and washed 3 times with PBS. The filter was pressed against microscope slides for a few seconds, the slides being then fixed in methanol for 10 minutes. The slides were dried in air and coloured with acridine orange for 2 minutes. The slides were washed, dried in air and studies in fluorescence microscope. The number of bacteria per cell was counted. In each experiment 50 cells were counted.

[4] = 0.3 mg/ml oligosaccharide, experiment 1 (without inhibitor 22.3)
[5] = 0.3 mg/ml oligosaccharide, experiment 2 (without inhibitor 32.0)
[6] = 1 mg/ml oligosaccharide, experiment 1 (without inhibitor 22.3)
[7] = 1 mg/ml oligosaccharide, experiment 2 (without inhibitor 32.0)
[8] = 3 mg/ml oligosaccharide, experiment 1 (without inhibitor 22.3)
[9] = 3 mg/ml oligosaccharide, experiment 2 (without inhibitor 32.0)

Which “% specific cytotoxicity” value [1, 4] does the source give for `CC(=O)NC1C(O)CC(OCC2OC(OC3C(CO)OC(O)C(O)C3O)C(O)C(O)C2O)(C(=O)O)OC1C(O)C(O)CO` (stereo not drawn) [6'siallyl-lactose, α-NeuNAcp-(2-6)-β-Galp-(1-4)-Glc, reference compound] here?
The value was 21.3%.

What about the “% specific cytotoxicity” value [1, 5] of the same molecule?
Its value is 20.2%.

And the “% specific cytotoxicity” value [1, 6]?
The value was 15.8%.

And the “% specific cytotoxicity” value [1, 7]?
Its value is 17.2%.

What about the “% specific cytotoxicity” value [1, 8] of the same molecule?
Its value is 9.6%.

And the “% specific cytotoxicity” value [1, 9]?
Its value is 15.1%.

And the minimal effective concentration [2]?
Its minimal effective concentration is > 2500 µg/mL.

`CC(=O)N[C@H]1[C@H](O[C@H]2[C@@H](O)[C@@H](CO)O[C@@H](O[C@H]3[C@H](O)[C@@H](O)C(O)O[C@@H]3CO)[C@@H]2O)O[C@H](CO)[C@@H](O)[C@@H]1O[C@@H]1O[C@H](CO)[C@H](O)[C@H](O)[C@H]1O` (stereo partly drawn) [β-Galp-(1-3)-β-GNAcp-(1-3)-β-Galp-(1-4)-Glc] was tested. Which minimal effective concentration [2] did it give?
Its minimal effective concentration is > 2500 µg/mL.

For `OC[C@H]1O[C@@H](O[C@H]2[C@H](O)[C@@H](O)C(O)O[C@@H]2CO)[C@H](O)[C@@H](O)[C@H]1O` (stereo partly drawn) [β-Galp-(1-4)-Glc, reference compound], which “reduction of the number of adhering bacteria (in words)” value ([3]; oligosaccharide 5 mg/ml, in comparison with the control test without oligosaccharides) is on record?
Its value is “did not reduce the number of adhering bacteria”.

And the minimal effective concentration [2]?
Its minimal effective concentration is > 2500 µg/mL.

What does the source list for `CC(=O)N[C@H]1[C@H](O[C@@H]2[C@@H](OC[C@H]3O[C@@H](O[C@H]4[C@H](O)[C@@H](NC(C)=O)C(O)O[C@@H]4CO)[C@@H](O)[C@@H](O[C@H]4O[C@H](CO)[C@@H](O)[C@H](O)[C@@H]4O[C@@H]4O[C@H](CO)[C@@H](O[C@@H]5O[C@H](CO)[C@H](O)[C@H](O)[C@H]5O)[C@H](O)[C@H]4NC(C)=O)[C@@H]3O)O[C@H](CO)[C@@H](O)[C@@H]2O)O[C@H](CO)[C@@H](O[C@@H]2O[C@H](CO)[C@H](O)[C@H](O)[C@H]2O)[C@@H]1O` (stereo partly drawn) [GM1 -octa]?
% specific cytotoxicity [1, 4]: 16.1%; % specific cytotoxicity [1, 5]: 28.0%; % specific cytotoxicity [1, 6]: 11.3%; % specific cytotoxicity [1, 7]: 25.0%; % specific cytotoxicity [1, 8]: 1.7%; % specific cytotoxicity [1, 9]: 12.8%; cytolytic effect after preincubation with the oligosaccharides ([1]; in concentrations down to 0.3 mg/ml): inhibited; minimal effective concentration [2]: 200 µg/mL

Which minimal effective concentration [2] does the source give for `OC[C@H]1O[C@@H](OC[C@H]2OC(O)[C@H](O)[C@@H](O)[C@H]2O)[C@H](O)[C@@H](O)[C@H]1O` (stereo partly drawn) [β-Galp-(1-6)-Gal] here?
Its minimal effective concentration is > 2500 µg/mL.

How did the Minimum inhibitory con. [2] turn out when “Asialotransferrin (human): Asialotransferrin (human)” was run?
Its Minimum inhibitory con. is 250 µg/mL.

With `CC(=O)N[C@H]1[C@H](O[C@@H]2[C@H](O)[C@@H](O)[C@H](O[C@H]3[C@H](O)[C@@H](O)C(O)O[C@@H]3CO)O[C@@H]2CO)O[C@H](CO)[C@@H](O[C@@H]2O[C@H](CO)[C@H](O)[C@H](O)[C@H]2O)[C@@H]1O` (stereo partly drawn) [β-Gal-(1-4)-β--GNAc-(1-4)-β-Gal-(1-4)-Glc] as the molecule, how does the “reduction of the number of adhering bacteria” value ([3]; oligosaccharide 5 mg/ml, preincubated 30 min at 37° C., then 45 min with cells, vs control without oligosaccharides) read?
The value was ~96%.

How did the minimal effective concentration [2] turn out when `CC(=O)N[C@H]1[C@H](O[C@H]2[C@@H](O)[C@@H](CO)O[C@H](O[C@@H]3[C@H](O)[C@@H](O)[C@H](O[C@H]4[C@H](O)[C@@H](O)C(O)O[C@@H]4CO)O[C@@H]3CO)[C@@H]2O)O[C@H](CO)[C@H](O)[C@@H]1O` (stereo partly drawn) [β-GalNAcp-(1-3)-α-Galp-(1-4)-β-Galp-(1-4)-Glc] was run?
Its minimal effective concentration is > 2500 µg/mL.

Which minimal effective concentration [2] does the source give for `OC[C@H]1O[C@@H](O[C@H]2[C@@H](O)[C@@H](CO)O[C@@H](O[C@H]3[C@@H](O)[C@@H](CO)OC(O)[C@@H]3O)[C@@H]2O)[C@H](O)[C@@H](O)[C@H]1O` (stereo partly drawn) [β-Galp-(1-3)-β-Galp-(1-3)-Gal] here?
The minimal effective concentration was > 2500 µg/mL.

`OC[C@H]1O[C@H](O[C@H]2[C@@H](O)[C@@H](CO)OC(O)[C@@H]2O)[C@H](O)[C@@H](O)[C@H]1O` (stereo partly drawn) [α-Galp-(1-3)-Gal] was tested. Which minimal effective concentration [2] did it give?
Its minimal effective concentration is > 2500 µg/mL.

For “Transferrin (human): Transferrin (human)”, which Minimum inhibitory con. [2] is on record?
The Minimum inhibitory con. was > 2500 µg/mL.

How did the minimal effective concentration [2] turn out when `OC[C@H]1O[C@H](O[C@@H]2[C@H](O)[C@@H](O)[C@H](O[C@H]3[C@H](O)[C@@H](O)C(O)O[C@@H]3CO)O[C@@H]2CO)[C@H](O)[C@@H](O)[C@H]1O` (stereo partly drawn) [α-Galp-(1-4)-β-Galp-(1-4)-Glc] was run?
The minimal effective concentration was > 2500 µg/mL.

Which minimal effective concentration [2] does the source give for `OC[C@H]1O[C@H](O[C@@H]2[C@H](O)[C@@H](O)C(O)O[C@@H]2CO)[C@H](O)[C@@H](O)[C@H]1O` (stereo partly drawn) [α-Galp-(1-4)-Gal] here?
The minimal effective concentration was > 2500 µg/mL.

With `CC(=O)NC1C(O)CC(OC2C(O)C(CO)OC(OC3C(CO)OC(O)C(O)C3O)C2O)(C(=O)O)OC1C(O)C(O)CO` (stereo not drawn) [3'siallyl-lactose, α-NeuNAcp-(2-3)-β-Galp-(1-4)-Glc, reference compound] as the molecule, how does the “% specific cytotoxicity” value [1, 4] read?
Its value is 23.9%.

What about the “% specific cytotoxicity” value [1, 5] of the same molecule?
The value was 28.7%.

And the “% specific cytotoxicity” value [1, 6]?
Its value is 25.2%.

And the “% specific cytotoxicity” value [1, 7]?
Its value is 19.7%.

And the “% specific cytotoxicity” value [1, 8]?
Its value is 20.0%.

What about the “% specific cytotoxicity” value [1, 9] of the same molecule?
The value was 19.1%.

What about the minimal effective concentration [2] of the same molecule?
The minimal effective concentration was > 2500 µg/mL.

For `CC(=O)N[C@H]1[C@H](O[C@H]2[C@@H](O)[C@@H](CO)O[C@@H](O[C@H]3[C@H](O)[C@@H](O)C(O)O[C@@H]3CO)[C@@H]2O)O[C@H](CO)[C@@H](O[C@@H]2O[C@H](CO)[C@H](O)[C@H](O)[C@H]2O)[C@@H]1O` (stereo partly drawn) [β-Galp-(1-4)-β-GNAcp-(1-3)-β-Galp-(1-4)-Glc], which minimal effective concentration [2] is on record?
The minimal effective concentration was 250 µg/mL.

How did the minimal effective concentration [2] turn out when `OC[C@H]1O[C@@H](O[C@H]2[C@@H](O)[C@@H](CO)OC(O)[C@@H]2O)[C@H](O)[C@@H](O)[C@H]1O` (stereo partly drawn) [β-Galp-(1-3)-Gal] was run?
Its minimal effective concentration is > 2500 µg/mL.

What does the source list for `CO[C@@H]1O[C@H](CO)[C@@H](O[C@@H]2O[C@H](CO)[C@H](O)[C@H](O)[C@H]2O)[C@H](O)[C@H]1NC(C)=O` [β-Galp-(1-4)-β-GNAcp-(1-0)-CH3]?
inhibition at 5000 µg/mL ([3]; Staphylococcus saprophyticus, Epithelial cell, 0.75 h, read-out: reduction of the number of adhering bacteria): ~95%; minimal effective concentration [2]: 250 µg/mL

B1: Fetuin: Fetuin (protein, UniProt P12763 19-359, looked up)
Alpha-2-HS-glycoprotein: IPLDPVAGYKEPACDDPDTEQAALAAVDYINKHLPRGYKHTLNQIDSVKVWPRRPTGEVYDIEIDTLETTCHVLDPTPLANCSVRQQTQHAVEGDCDIHVLKQDGQFSVLFTKCDSSPDSAEDVRKLCPDCPLLAPLNDSRVVHAVEVALATFNAESNGSYLQLVEISRAQFVPLPVSVSVEFAVAATDCIAKEVVDPTKCNLLAEKQYGFCKGSVIQKALGGEDVRVTCTLFQTQPVIPQPQPDGAEAEAPSAVPDAAGPTPSAAGPPVASVVVGPSVVAVPLPLHRAHYDLRHTFSGVASVESSSGEAFHVGKTPIVGQPSIPGGPVRLCPGRIRYFKI
B1 was tested. Which Minimum inhibitory con. [2] did it give?
The Minimum inhibitory con. was > 2500 µg/mL.
